Reference: patent US4550186A, “Binuclear copper (II) carboxylates formed from amine-carboxyboranes” (Duke University, priority 1983, dated 1985)

System: CF1 male mice
Test: Antihyperlipidemic screen in normal mice
Assay type: in vivo, mouse
Details: for Serum Cholesterol / Serum Triglyceride: CF1 male mice I.P.
Method: Compounds to be tested were suspended in 1% carboxymethylcellulose-water and administered to CF1 male mice (~25 g) intraperitoneally for 16 days or Holtzman male rats (~350 g) orally by an intubation needle for 16 days. On days 9 or 16, blood was obtained by tail vein bleeding and the serum separated by centrifugation for 3 min. The serum cholesterol levels were determined by a modification of the Liebermann-Burchard reaction as described in Ness et al, Clin. Chim. Acta, 10, 229 (1964). Serum was also collected on day 16 and the triglyceride content was determined by a commercial kit, The Fisher Hycel Triglyceride Test Kit.
Data are expressed in the Table 2-7 as percent of control ± the standard deviation. The probable significant level (P) between each test group and the control group was determined by the Student's "t" test.

With “{Cu[(CH3)3 N.BH2 CO2 ]2.(CH3)3 N.BH2 COOH} [Compound I]” the “Serum Cholesterol” value (2.5 mg/kg, Day 9) was 61 ± 5 % Control, the “Serum Cholesterol” value (2.5 mg/kg, Day 16) was 62 ± 6 % Control and the “Serum Triglyceride” value (2.5 mg/kg, Day 16) was 50 ± 6 % Control. For the same substance, the “Serum Cholesterol” value (5.0 mg/kg, Day 9) was 67 ± 6 % Control, the “Serum Cholesterol” value (5.0 mg/kg, Day 16) was 63 ± 5 % Control and the “Serum Triglyceride” value (5.0 mg/kg, Day 16) was 69 ± 6 % Control. The “Serum Cholesterol” value (10.0 mg/kg, Day 9) was 71 ± 6 % Control, the “Serum Cholesterol” value (10.0 mg/kg, Day 16) was 63 ± 5 % Control and the “Serum Triglyceride” value (10.0 mg/kg, Day 16) was 47 ± 5 % Control. For the same substance, the “Serum Cholesterol” value (20.0 mg/kg, Day 9) was 52 ± 5 % Control, the “Serum Cholesterol” value (20.0 mg/kg, Day 16) was 53 ± 4 % Control and the “Serum triglyceride levels reduced” value (mice, 2.5 mg/kg/day) was “greater than 50%”. For the same substance, the “Serum triglyceride levels reduced” value (mice, 10 mg/kg/day) was “greater than 50%”, the serum triglyceride reduction (mice, 10 mg/kg/day) was 53% and the “reduction of serum cholesterol (maximal effect)” value (mice, 20 mg/kg/day) was 47%.
